Drawing on patent US9693564B2, “Water based antimicrobial composition using benzalkonium chloride and cocamidopropyl PG-dimonium chloride phosphate” (SAFEHANDS SOLUTIONS, LLC, priority 2011, dated 2017), this text covers log reduction for 3 compounds.

For the assay, the system named is Staphylococcus aureus. Description: Antimicrobial effectiveness testing (log reduction of bacteria, 15 seconds exposure). Format: cell-based. The settings on record: 15 seconds at 25±1° C., undiluted. As to the method:
The tests were performed on broth cultures that were passed through at least three consecutive daily transfers but no more than ten daily transfers. The broth cultures were diluted with the appropriate broth to obtain an inoculum count of 6×10^8 to 1×10^9 CFU/ml (Mac Farland Standard ˜2.0 to 3.0). The test article was used undiluted. The exposure time and temperature was 15 seconds at 25±1° C., respectively. All tests involving the test article were conducted in triplicate. A 4.95 gram sample of the test article was placed in a sterile, screw-top 50 ml polyethylene tube at 25±1° C. The test article was inoculated with 0.05 ml of the test organism at the appropriate concentration. The tube contents were neutralized by the addition of 45 ml of Neutralizer (Tryptic or Trypticase Soy Broth (TSB) with 10% TWEEN 80, 3% Lecithin, 0.5% Sodium thiosulfate and 0.1% Histidine, pH 7.2±0.1) followed by vortexing. One ml of the neutralized sample (10^−1 dilution) was serially diluted in 10-fold steps to 10^−6 for the test article and to 10^−7 for the numbers control using tubes containing 9 ml of AOAC Neutralizer blanks. An inoculum count was determined by 10-fold serial dilutions to 10^−8 using tubes containing 9 ml of AOAC phosphate buffered dilution water. The dilutions were plated in duplicate on Letheen Agar, and plates were incubated in an inverted position for the appropriate time and at a temperature appropriate for the test organism. The test organism was a single species of Staphylococcus aureus.
Antimicrobial effectiveness was determined by calculating the log reduction of bacteria in the test sample. For comparison, the log reduction for a 0.02% CHX-gluconate solution is 0.5, the log reduction for a 0.13% BAC solution is 0.5, and the log reduction for a 1% cocamidopropyl PG-dimonium chloride phosphate solution is 2. When added together, the total log reduction for the three ingredients tested individually is 3.

`CCCCCCCCCCCC(=O)NCCC[N+](C)(C)CC(O)COP(=O)([O-])OCC(O)C[N+](C)(C)CCCNC(=O)CCCCCCCCCCC.[Cl-].[Cl-].[Na+]` (stereo not drawn) [cocamidopropyl PG-dimonium chloride phosphate]: the log reduction (1% solution) turned out to be 2.

Compound benzalkonium chloride [BAC] came in with a log reduction (0.13% solution) of 0.5.

As to `N=C(NCCCCCCNC(=N)NC(=N)Nc1ccc(Cl)cc1)NC(=N)Nc1ccc(Cl)cc1.O=C(O)[C@H](O)[C@@H](O)[C@H](O)[C@H](O)CO.O=C(O)[C@H](O)[C@@H](O)[C@H](O)[C@H](O)CO` [CHX-gluconate, chlorhexidine gluconate], the log reduction (0.02% solution) is recorded as 0.5.
